Laboratory results published in BindingDB's records for patent WO2023001061 (Jingrui Biopharma, 2023).

Biological target: CDK-activating kinase assembly factor MAT1/Cyclin-H/Cyclin-dependent kinase 7 (Homo sapiens, UniProt P50613)
Experiment: In Vitro Kinase assay (CDK7) and IC 50 determination
Method: The kinase assay was carried out by Sundia MediTech Co., Ltd.

Chain of CDK-activating kinase assembly factor MAT1/Cyclin-H/Cyclin-dependent kinase 7 (P51946 whole entry): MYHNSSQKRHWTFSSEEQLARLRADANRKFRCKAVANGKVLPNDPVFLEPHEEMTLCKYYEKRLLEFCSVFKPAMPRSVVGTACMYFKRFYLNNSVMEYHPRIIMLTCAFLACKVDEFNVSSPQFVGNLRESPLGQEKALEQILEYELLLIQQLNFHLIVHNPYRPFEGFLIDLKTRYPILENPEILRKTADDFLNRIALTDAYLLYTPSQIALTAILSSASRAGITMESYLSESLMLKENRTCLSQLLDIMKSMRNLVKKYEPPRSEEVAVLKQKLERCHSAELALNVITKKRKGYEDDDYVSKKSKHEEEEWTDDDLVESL
Chain of CDK-activating kinase assembly factor MAT1/Cyclin-H/Cyclin-dependent kinase 7 (P50613 whole entry): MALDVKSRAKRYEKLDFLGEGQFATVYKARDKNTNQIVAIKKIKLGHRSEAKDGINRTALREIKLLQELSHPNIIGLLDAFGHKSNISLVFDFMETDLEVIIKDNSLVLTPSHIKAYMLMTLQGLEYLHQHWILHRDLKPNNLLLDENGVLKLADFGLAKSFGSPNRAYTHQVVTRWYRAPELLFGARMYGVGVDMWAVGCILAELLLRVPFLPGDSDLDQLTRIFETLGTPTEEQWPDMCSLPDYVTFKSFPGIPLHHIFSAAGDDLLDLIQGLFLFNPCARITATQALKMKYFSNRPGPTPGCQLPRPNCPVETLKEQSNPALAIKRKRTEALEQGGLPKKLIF
Chain of CDK-activating kinase assembly factor MAT1/Cyclin-H/Cyclin-dependent kinase 7 (P51948 whole entry, further chain): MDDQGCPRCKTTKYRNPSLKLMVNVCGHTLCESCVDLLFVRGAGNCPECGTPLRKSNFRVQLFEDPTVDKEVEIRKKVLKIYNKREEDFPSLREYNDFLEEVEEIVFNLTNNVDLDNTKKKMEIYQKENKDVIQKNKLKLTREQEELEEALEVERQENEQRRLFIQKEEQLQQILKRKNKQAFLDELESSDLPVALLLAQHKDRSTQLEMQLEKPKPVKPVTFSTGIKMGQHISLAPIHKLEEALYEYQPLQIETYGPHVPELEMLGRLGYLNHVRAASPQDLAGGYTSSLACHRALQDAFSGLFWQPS

Q: With `CC(C)c1cnn2c(NCc3ccccc3N(C)C)cc(OC3CCN(C)CC3)nc12` [WO2023001061, Example 1] as the molecule, how does the IC50 read?
A: The IC50 was less than 50 nM.

Q: For `CC(C)c1cnn2c(NCC3CCCN3C)cc(NC[C@H]3CCNC[C@@H]3O)nc12` (stereo not given in full) [WO2023001061, Example 2], which IC50 is on record?
A: The IC50 was less than 50 nM.

Q: For `CC(C)c1cnn2c(NCc3nc4cc(N(C)C)ccc4s3)cc(NC[C@H]3CCNC[C@@H]3O)nc12` [WO2023001061, Example 4], which IC50 is on record?
A: The IC50 was less than 50 nM.

Q: Which IC50 does the source give for `CC(C)c1cnn2c(NCc3ccc4cccc(N(C)C)c4n3)cc(NC[C@H]3CCNC[C@@H]3O)nc12` [WO2023001061, Example 5] here?
A: The IC50 was less than 50 nM.

Q: How did the IC50 turn out when `CC(C)c1cnn2c(NCc3ccnn3C)cc(NC[C@H]3CCNC[C@@H]3O)nc12` [WO2023001061, Example 6] was run?
A: The IC50 was less than 50 nM.

Q: For `CC(C)c1cnn2c(NCc3ccnn3C)cc(OC3CCN(C)CC3)nc12` [WO2023001061, Example 7], which IC50 is on record?
A: Its IC50 is less than 50 nM.

Q: For `CC(C)c1cnn2c(NCC3CCCN3C)cc(OC3CCN(C)CC3)nc12` (stereo not given) [WO2023001061, Example 8], which IC50 is on record?
A: Its IC50 is less than 500 nM.

Q: With `CC(C)c1cnn2c(NCc3ccn[nH]3)cc(NC[C@H]3CCNC[C@@H]3O)nc12` [WO2023001061, Example 9] as the molecule, how does the IC50 read?
A: The IC50 was less than 50 nM.

Q: How did the IC50 turn out when `CC(C)c1cnn2c(NCc3ccnn3C(C)C)cc(NC[C@H]3CCNC[C@@H]3O)nc12` [WO2023001061, Example 10] was run?
A: The IC50 was less than 50 nM.

Q: With `CC(C)c1cnn2c(NCc3ccnn3C3CC3)cc(NC[C@H]3CCNC[C@@H]3O)nc12` [WO2023001061, Example 11] as the molecule, how does the IC50 read?
A: Its IC50 is less than 50 nM.

Q: `CC(C)c1cnn2c(NCc3cncn3C)cc(NC[C@H]3CCNC[C@@H]3O)nc12` [WO2023001061, Example 13] was tested. Which IC50 did it give?
A: Its IC50 is less than 50 nM.

Q: `CC(C)c1cnn2c(NCc3nccn3C)cc(NC[C@H]3CCNC[C@@H]3O)nc12` [WO2023001061, Example 14] was tested. Which IC50 did it give?
A: The IC50 was less than 50 nM.

Q: Which IC50 does the source give for `CC(C)c1cnn2c(NCc3cccnc3N(C)C)cc(NC[C@H]3CCNC[C@@H]3O)nc12` [WO2023001061, Example 15] here?
A: Its IC50 is less than 50 nM.

Q: `CC(C)c1cnn2c(NCC3CCCN3C)nc(OC3CCN(C)CC3)nc12` (stereo not given) [WO2023001061, Example 23] was tested. Which IC50 did it give?
A: Its IC50 is less than 500 nM.

Q: Which IC50 does the source give for `CC(C)c1cnn2c(NCc3ccnn3C)nc(OC3CCN(C)CC3)nc12` [WO2023001061, Example 26] here?
A: The IC50 was less than 50 nM.

Q: For `CC(C)c1cnn2c(NCc3ccc4cccc(N(C)C)c4n3)nc(OC3CCN(C)CC3)nc12` [WO2023001061, Example 27], which IC50 is on record?
A: The IC50 was less than 50 nM.

Q: How did the IC50 turn out when `Cc1cc(CNc2nc(OC3CCN(C)CC3)nc3c(C(C)C)cnn23)n(C2CC2)n1` [WO2023001061, Example 28] was run?
A: The IC50 was less than 50 nM.

Q: With `CC(C)c1cnn2c(NCc3ccn(C)n3)cc(NC[C@H]3CCNC[C@@H]3O)nc12` [WO2023001061, Example 29] as the molecule, how does the IC50 read?
A: Its IC50 is less than 50 nM.

Q: For `CC(C)c1cnn2c(NCc3nc4ccccc4s3)cc(NC[C@H]3CCNC[C@@H]3O)nc12` [WO2023001061, Example 30], which IC50 is on record?
A: The IC50 was less than 50 nM.

Q: How did the IC50 turn out when `CC(C)c1cnn2c(NCc3nccs3)cc(NC[C@H]3CCNC[C@@H]3O)nc12` [WO2023001061, Example 31] was run?
A: The IC50 was less than 50 nM.

Q: For `CC(C)c1cnn2c(NCc3nn(C)c4ccccc34)cc(NC[C@H]3CCNC[C@@H]3O)nc12` [WO2023001061, Example 35], which IC50 is on record?
A: Its IC50 is less than 50 nM.

Q: For `CC(C)c1cnn2c(NCc3nc4ccccc4n3C)cc(NC[C@H]3CCNC[C@@H]3O)nc12` [WO2023001061, Example 36], which IC50 is on record?
A: Its IC50 is less than 50 nM.

Q: For `CC(C)c1cnn2c(NCc3nc4cc(C(F)(F)F)ccc4s3)cc(NC[C@H]3CCNC[C@@H]3O)nc12` [WO2023001061, Example 38], which IC50 is on record?
A: The IC50 was less than 50 nM.

Q: For `CC(C)c1cnn2c(NCc3nc4cc(Cl)ccc4s3)cc(NC[C@H]3CCNC[C@@H]3O)nc12` [WO2023001061, Example 39], which IC50 is on record?
A: Its IC50 is less than 50 nM.

Q: With `CC(C)c1cnn2c(NCc3nc(C4CC4)cs3)cc(NC[C@H]3CCNC[C@@H]3O)nc12` [WO2023001061, Example 48] as the molecule, how does the IC50 read?
A: The IC50 was less than 50 nM.
